Assay results published in article PMC11012124, “Synthesis of Novel Triazine-Based Chalcones and 8,9-dihydro-7H-pyrimido[4,5-b][1,4]diazepines as Potential Leads in the Search of Anticancer, Antibacterial and Antifungal Agents” (International Journal of Molecular Sciences, 2024).

Key:
UO-31 = assay: cells; conditions: Homo sapiens, UO-31, 48 h; for CC50: read-out: LC50
SNB-75 = assay: cells; conditions: Homo sapiens, SNB-75, 48 h; for CC50: read-out: LC50
OVCAR-8 = assay: cells; conditions: Homo sapiens, OVCAR-8, 48 h; for CC50: read-out: LC50
786-0 = assay: cells; conditions: Homo sapiens, 786-0, 48 h; for CC50: read-out: LC50
MDA-MB-435 = assay: cells; conditions: Homo sapiens, MDA-MB-435, 48 h; for CC50: read-out: LC50
HOP-62 = assay: cells; conditions: Homo sapiens, HOP-62, 48 h; for CC50: read-out: LC50
IGROV1 = assay: cells; conditions: Homo sapiens, IGROV-1, 48 h; for CC50: read-out: LC50
U251 = assay: cells; conditions: Homo sapiens, U-251, 48 h; for GI50: U251, 48 h; for CC50: read-out: LC50
SF-268 = assay: cells; conditions: Homo sapiens, SF-268, 48 h; for CC50: read-out: LC50
HCT-116 = assay: cells; conditions: Homo sapiens, HCT-116, 48 h; for CC50: read-out: LC50
UACC-257 = assay: cells; conditions: Homo sapiens, UACC-257, 48 h; for CC50: read-out: LC50
KM12 = assay: cells; conditions: Homo sapiens, KM12, 48 h; for CC50: read-out: LC50
ACHN = assay: cells; conditions: Homo sapiens, 48 h; for CC50: read-out: LC50
M14 = assay: cells; conditions: Homo sapiens, M14, 48 h; for CC50: read-out: LC50
NCI-H226 = assay: cells; conditions: Homo sapiens, NCI-H226, 48 h; for CC50: read-out: LC50
EKVX = assay: cells; conditions: Homo sapiens, 48 h; for CC50: read-out: LC50
NCI-H460 = assay: cells; conditions: Homo sapiens, NCI-H460, 48 h; for CC50: read-out: LC50
BT-549 = assay: cells; conditions: Homo sapiens, BT-549, 48 h; for CC50: read-out: LC50
60 cancer cell lines = assay: NCI-60 one-dose screen (10 μM); type: cell-based; conditions: Homo sapiens; one dose of 10 μM, mean over 60 cancer cell lines; read-out: Mean Growth Percent (MGP)
Description: Additionally, the mean of the growth percentages (MGP) of each compound against all the 60 cancer cell lines is also reported, which is used as one of the selection criteria to continue with tests at five concentration doses.

OVCAR-4 = assay: cells; conditions: Homo sapiens, OVCAR-4, 48 h; for CC50: read-out: LC50
SK-MEL-5 = assay: cells; conditions: Homo sapiens, SK-MEL-5, 48 h; for CC50: read-out: LC50
A549/ATCC = assay: cells; conditions: Homo sapiens, A549, 48 h; for CC50: read-out: LC50
RPMI-8226 = assay: cells; conditions: Homo sapiens, RPMI-8226, 48 h; for CC50: read-out: LC50
SK-MEL-28 = assay: cells; conditions: Homo sapiens, SK-MEL-28, 48 h; for CC50: read-out: LC50
HL-60(TB) = assay: cells; conditions: Homo sapiens, HL-60, 48 h; for CC50: read-out: LC50
MALME-3M = assay: cells; conditions: Homo sapiens, 48 h; for CC50: read-out: LC50
OVCAR-5 = assay: cells; conditions: Homo sapiens, OVCAR-5, 48 h; for CC50: read-out: LC50
SNB-19 = assay: cells; conditions: Homo sapiens, SNB-19, 48 h; for CC50: read-out: LC50
NCI-H23 = assay: cells; conditions: Homo sapiens, NCI-H23, 48 h; for CC50: read-out: LC50
CCRF-CEM = assay: cells; conditions: Homo sapiens, 48 h; for CC50: read-out: LC50
SF-295 = assay: cells; conditions: Homo sapiens, SF-295, 48 h; for CC50: read-out: LC50
SW-620 = assay: cells; conditions: Homo sapiens, SW-620, 48 h; for CC50: read-out: LC50
COLO 205 = assay: cells; conditions: Homo sapiens, COLO 205, 48 h; for CC50: read-out: LC50
NCI-H322M = assay: cells; conditions: Homo sapiens, 48 h; for CC50: read-out: LC50
SK-MEL-2 = assay: cells; conditions: Homo sapiens, SK-MEL-2, 48 h; for CC50: read-out: LC50
HCT-15 = assay: cells; conditions: Homo sapiens, HCT-15, 48 h; for CC50: read-out: LC50
SN12C = assay: cells; conditions: Homo sapiens, 48 h; for CC50: read-out: LC50

## COc1cc(/C=C/C(=O)c2ccc(C)cc2)ccc1Oc1nc(Nc2ccc(F)cc2)nc(N(C)C)n1 [21b]
UO-31
  GI50: 4.2 µM
  CC50: > 100 µM
SNB-75
  GI50: 15.4 µM
  CC50: > 100 µM
OVCAR-8
  GI50: 7.19 µM
  CC50: > 100 µM
786-0
  GI50: 13.3 µM
  CC50: > 100 µM
MDA-MB-435
  GI50: 11.4 µM
  CC50: 70.4 µM
HOP-62
  GI50: 32.2 µM
  CC50: > 100 µM
IGROV1
  GI50: 13.8 µM
  CC50: 99.1 µM
U251
  GI50: 3.32 µM
  CC50: > 100 µM
SF-268
  GI50: 13.9 µM
  CC50: > 100 µM
HCT-116
  GI50: 2.28 µM
  CC50: 24.4 µM
UACC-257
  GI50: 8.76 µM
  CC50: > 100 µM
KM12
  GI50: 19.3 µM
  CC50: > 100 µM
ACHN
  GI50: 9.58 µM
  CC50: 96.5 µM
M14
  GI50: 14.7 µM
  CC50: > 100 µM
NCI-H226
  GI50: 5.22 µM
  CC50: 49.1 µM
EKVX
  GI50: 6.71 µM
  CC50: > 100 µM
NCI-H460
  GI50: 12.1 µM
  CC50: > 100 µM
BT-549
  GI50: 6.27 µM
  CC50: 91.3 µM
60 cancer cell lines
  activity at 10 µM: 39%
OVCAR-4
  GI50: 7.94 µM
  CC50: > 100 µM
SK-MEL-5
  GI50: 5.14 µM
  CC50: 78.5 µM
A549/ATCC
  GI50: 45.8 µM
  CC50: > 100 µM
RPMI-8226
  GI50: 3 µM
  CC50: > 100 µM
SK-MEL-28
  GI50: 12.3 µM
  CC50: 79.6 µM
HL-60(TB)
  GI50: 19.1 µM
  CC50: > 100 µM
MALME-3M
  GI50: 15.4 µM
  CC50: 72.3 µM
OVCAR-5
  GI50: 16.5 µM
  CC50: > 100 µM
SNB-19
  GI50: 11.1 µM
  CC50: 67.3 µM
NCI-H23
  GI50: 5.52 µM
  CC50: > 100 µM
CCRF-CEM
  GI50: 3.92 µM
  CC50: > 100 µM
SF-295
  GI50: 8.61 µM
  CC50: > 100 µM
SW-620
  GI50: 2.36 µM
  CC50: 20.1 µM
COLO 205
  GI50: 41.7 µM
  CC50: > 100 µM
NCI-H322M
  GI50: 51.9 µM
  CC50: > 100 µM
SK-MEL-2
  GI50: 8.83 µM
  CC50: > 100 µM
HCT-15
  GI50: 4.73 µM
  CC50: 43.4 µM
SN12C
  GI50: 3.89 µM
  CC50: 73 µM

## Cc1ccc(/C=C/C(=O)c2ccc(S(=O)(=O)NCCNc3nc(Nc4ccc(F)cc4)nc(N(C)C)n3)cc2)cc1 [24b]
UO-31
  GI50: 6.77 µM
  CC50: 44.7 µM
SNB-75
  GI50: 7.59 µM
  CC50: > 100 µM
OVCAR-8
  GI50: 13 µM
  CC50: 56 µM
786-0
  GI50: 10.5 µM
  CC50: 51 µM
MDA-MB-435
  GI50: 6.03 µM
  CC50: 61.7 µM
HOP-62
  GI50: 15.3 µM
  CC50: 64.8 µM
IGROV1
  GI50: 15.1 µM
  CC50: 63.6 µM
U251
  GI50: 11.6 µM
  CC50: 58.7 µM
SF-268
  GI50: 8.76 µM
  CC50: 90.9 µM
HCT-116
  GI50: 1.75 µM
  CC50: 6.17 µM
UACC-257
  GI50: 17.4 µM
  CC50: 62.9 µM
KM12
  GI50: 5.41 µM
  CC50: 99.7 µM
ACHN
  GI50: 6.31 µM
  CC50: 44.1 µM
M14
  GI50: 5.91 µM
  CC50: 49.2 µM
NCI-H226
  GI50: 10.4 µM
  CC50: 63.9 µM
EKVX
  GI50: 4.96 µM
  CC50: 43.3 µM
NCI-H460
  GI50: 4.22 µM
  CC50: 52.3 µM
BT-549
  GI50: 15.7 µM
  CC50: 57.8 µM
60 cancer cell lines
  activity at 10 µM: 16.5%
OVCAR-4
  GI50: 7.79 µM
  CC50: > 100 µM
SK-MEL-5
  GI50: 8.25 µM
  CC50: 45.9 µM
A549/ATCC
  GI50: 10.5 µM
  CC50: 77.7 µM
RPMI-8226
  GI50: 2.73 µM
  CC50: > 100 µM
SK-MEL-28
  GI50: 11.3 µM
  CC50: 49.6 µM
HL-60(TB)
  GI50: 5.58 µM
  CC50: > 100 µM
MALME-3M
  GI50: 16.4 µM
  CC50: 60.9 µM
OVCAR-5
  GI50: 14.9 µM
  CC50: 53.7 µM
SNB-19
  GI50: 11 µM
  CC50: 50.2 µM
NCI-H23
  GI50: 11.3 µM
  CC50: 50 µM
CCRF-CEM
  GI50: 5.28 µM
  CC50: > 100 µM
SF-295
  GI50: 11.5 µM
  CC50: 49.2 µM
SW-620
  GI50: 7.53 µM
  CC50: 49.4 µM
COLO 205
  GI50: 6.51 µM
  CC50: 55.1 µM
NCI-H322M
  GI50: 11.8 µM
  CC50: 62.5 µM
SK-MEL-2
  GI50: 11.2 µM
  CC50: 52.3 µM
HCT-15
  GI50: 3.92 µM
  CC50: 35.3 µM
SN12C
  GI50: 11.2 µM
  CC50: 48.8 µM
